According to the NIST ThermoML archive (doi:10.1016/j.fluid.2012.06.017):
± gives the expanded uncertainty stated by the source.

Details: Liquid; Pulse-heating method

Critical pressure [kPa] | Critical temperature [K] | SMILES
1070 ± 60 | 657 ± 14 | CC(C)(C)[O-].CC(C)(C)[O-].CC(C)(C)[O-].CC(C)(C)[O-].[Ti+4] [titanium(IV) 2-methylpropan-2-olate]
1310 ± 80 | 587 ± 12 | CC(C)O[Si](OC(C)C)(OC(C)C)OC(C)C [isopropyl silicate ((C3H7O)4Si)]
1140 ± 60 | 641 ± 12 | CC(C)[O-].CC(C)[O-].CC(C)[O-].CC(C)[O-].[Ti+4] [titanium(IV) 2-propanolate]
